# From patent publication US12522630B2, “MRNA cap analog and uses thereof” (HANMI FINE CHEMICAL CO., LTD., priority 2022, dated 2026)
# Assays:
# T7 RNA polymerase = biological target: T1, T7 RNA polymerase (Escherichia phage T7, UniProt P00573); test: In vitro transcription of luciferase mRNA capped by co-transcriptional capping; assay type: biochemical; conditions: 4 mM cap analog, 37° C., 1 to 4 hours; compared with ^7mG(3′OMe)pppA(2′OMe)pG (set as 100%); FIG. 1
# T1 construct: purchased New England Biolab #dy1670
# Description: For mRNA synthesis reaction using the compound of Example 8 as a cap analog, a transcription mixture including a 100 ng/ml firefly luciferase DNA transcription template (including poly A 101), 5 mM ATP, CTP, GTP, and 1-N-methyl-pseudouridine 5′-triphosphate (me^1øTP), 4 mM compound of Example 8, 10 U/ml T7 RNA polymerase (New England Biolab #dy1670), 1 U/ml RNase inhibiting protein, 0.01 U/ml inorganic pyrophosphatase, 40 mM Tris·HCl (pH 8.0), 20 mM magnesium acetate, 1 mM spermidine, and 10 mM DTT was prepared. As a comparative example, a transcription mixture was prepared by adding the TriLink's trinucleotide cap analog ^m7G(3′Ome)pppA(2′oMe)pG, instead of the compound of Example 8, under the same conditions. Each of the prepared transcription mixtures was reacted at 37° C. for 1 to 4 hours. […] Concentration of the purified mRNA was measured by using a Nanodrop spectrophotometer of Thermo Scientific, and a total amount of mRNA was calculated by multiplying the concentration and reaction volume. Then, in order to derive a mRNA in vitro transcription (IVT) yield, the total amount of mRNA synthesized using each different cap analog was divided by the input L-DNA content to quantify the IVT yield value according to the cap analog. […] This may be calculated by [Equation 1] below. […]
# HEK293T cells = test: Translation of capped luciferase mRNA in HEK293T cell; assay type: cell-based, Human; conditions: compared with mRNA capped with ^7mG(3′OMe)pppA(2′OMe)pG
# Description: Translation activity of luciferase mRNAs respectively prepared by in vitro transcription of the compound of Example 8 or ^7mG(3′OMe)pppA(2′OMe)pG in Experimental Example 1 was evaluated in Human embryonic kidney 293T cell lines (HEK293T). HEK293T cells were incubated in DMEM supplemented with 10% FBS and 1% penicillin/streptomycin at 37° C. under an atmosphere of 5% CO2. HEK293T cells were plated in a 6-well plate at a density of 1×10^5 cells/well. […] The cells were harvested after 1, 4, 6, 12, 24, and 48 hours from the transfection and luciferase activity was measured by using a Dual-Glo® Luciferase Assay kit (Promega catalog #E2910) according to manufacturer's recommendations: after removing the medium of the transfected cells, 75 μl of phosphate-buffered saline (PBS) was added thereto. Subsequently, 75 μl of a Dual-Glo® reagent was further added thereto, followed by mixing and incubation for 10 minutes, and then firefly luciferase luminescence was measured by using a luminometer (Perkin Elmer). Then, 75 μl of a Dual-Glo® Stop&Glo® reagent was further added thereto, followed by incubation for 10 minutes, and then Renilla luciferase luminescence was measured. A ratio of firefly luciferase luminous value to a Renilla luciferase luminous value, a control was calculated, and then luciferase activity per hour relative […] (RLU) was normalized, which is shown in FIG. 2. […]
# T1 sequence (P00573 whole entry): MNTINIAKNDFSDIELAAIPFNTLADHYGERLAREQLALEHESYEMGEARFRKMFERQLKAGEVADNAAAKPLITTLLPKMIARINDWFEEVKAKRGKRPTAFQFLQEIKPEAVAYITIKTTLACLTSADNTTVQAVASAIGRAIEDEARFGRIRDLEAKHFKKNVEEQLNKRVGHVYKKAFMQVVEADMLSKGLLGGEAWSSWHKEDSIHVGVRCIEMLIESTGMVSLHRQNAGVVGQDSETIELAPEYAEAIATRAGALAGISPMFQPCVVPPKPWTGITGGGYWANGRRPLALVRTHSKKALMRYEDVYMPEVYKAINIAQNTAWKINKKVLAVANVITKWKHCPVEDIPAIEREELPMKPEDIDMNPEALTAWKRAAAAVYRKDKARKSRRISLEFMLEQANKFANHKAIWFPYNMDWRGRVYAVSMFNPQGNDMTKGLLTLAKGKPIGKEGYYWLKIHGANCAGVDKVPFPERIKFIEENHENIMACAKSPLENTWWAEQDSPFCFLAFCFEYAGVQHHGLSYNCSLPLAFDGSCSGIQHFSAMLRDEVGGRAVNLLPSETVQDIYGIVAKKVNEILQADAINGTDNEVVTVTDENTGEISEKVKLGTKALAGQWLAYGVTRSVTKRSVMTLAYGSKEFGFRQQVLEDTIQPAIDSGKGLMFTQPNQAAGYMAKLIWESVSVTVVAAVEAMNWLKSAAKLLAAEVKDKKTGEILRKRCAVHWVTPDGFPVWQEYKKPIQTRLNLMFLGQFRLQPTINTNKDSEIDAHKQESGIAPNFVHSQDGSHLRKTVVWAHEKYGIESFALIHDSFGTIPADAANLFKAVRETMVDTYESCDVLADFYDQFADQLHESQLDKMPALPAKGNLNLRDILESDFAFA
smiles,measurement,setting,value
"COC1[C@@H](OP(=O)(O)OC[C@H]2O[C@@H](n3cnc4c(=O)[nH]c(N)nc43)C(O)[C@H]2O)[C@@H](COP(=O)(O)OP(=O)(O)OP(=O)(O)OC[C@H]2O[C@@H](n3c[n+](C)c4c(=O)[nH]c(N)nc43)C(O)[C@H]2OS(C)(=O)=O)O[C@H]1n1cnc2c(N)ncnc21 (stereo partly drawn) [Example 8, ^7mG(3′OMs)pppA(2′OMe)pG]",IVT yield of luciferase mRNA with the compound as cap analog,T7 RNA polymerase,almost same
same,total protein expression level (AUC of luciferase activity) of mRNA capped with the compound,"HEK293T cells; 1 hour to 48 hours after transfection, FIG. 3",higher total protein expression level
same,luciferase activity of mRNA capped with the compound,"HEK293T cells; from 6 hours to 12 hours after transfection, FIG. 2",far higher luciferase activity
